A short description of test [1]: rescue of ΔF508 CFTR function, airway epithelium – human bronchial epithelial cells, plate reader, cherry-pick, two tests, dose response (AID 743267). The test is classed as functional, cell-based.
Test [2] in a line: cells. The note with it: HEK293.
Test [3] deals with T1, Runt-related transcription factor 1/Core-binding factor subunit beta (Homo sapiens, UniProt Q01196+Q13951). Kind of test: disruptors of Runt domain/CBFb-SMMHC interaction – biochemical, FRET, Cerulean-Runt, Venus-CBFb-SMMHC, uHTS, […] (AID 1434). Type of test: protein assay.
Test [4] addresses T1, Runt-related transcription factor 1/Core-binding factor subunit beta. Kind of test: Runt domain/CBFb-SMMHC interaction disruptors – biochemical, TR-FRET (AID 1438). Type of test: protein assay. Background: In TR-FRET formats the signal depends on donor and acceptor labels being close together.
A short description of test [5]: cells. The note with it: A549.
In another test the target is Albumin (Bos taurus, UniProt P02769). Kind of test: Counterscreen for inhibitors of T-cell receptor (TCR)-CD3 interaction: Fluorescence-based biochemical high throughput dose response assay to identify inhibitors of T-cell receptor (TCR)-CD3 interaction using a TAMRA-labeled BSA probe. The test is classed as functional. Background: The purpose of a counterscreen is to sort out artefacts and off-target activity.

Test [6] addresses Dual specificity protein phosphatase 3 (Homo sapiens, UniProt P51452). Kind of test: VHR phosphatase inhibition, dose response, selectivity assay for STEP inhibitor project, biochemical (AID 602374). The note with it: read-out: IC50_Mean. The test is classed as functional.
In test [7] the target is Tyrosine-protein phosphatase non-receptor type 5 (Homo sapiens, UniProt P54829). As to the kind of experiment: PTPN5 enzyme inhibition – biochemical, fluorescence intensity, uHTS hits, confirmation (AID 602372). The test is classed as functional. The note with it: read-out: IC50_Mean.
For test [8], the target named is T2, Small ubiquitin-related modifier 1 (Homo sapiens, UniProt P63165). Kind of test: SUMO1 protein-protein binding blockers, potency – biochemical, FRET, dose response (AID 624383). The test is classed as functional. The following applies: read-out: IC50_Mean.
The target of test [9] is Tyrosine-protein phosphatase non-receptor type 11 (Homo sapiens, UniProt Q06124). As to the kind of experiment: PTPN11 enzyme inhibitors – biochemical, selectivity assay for STEP inhibitor project, dose response (AID 602367). Type of test: functional. The note with it: read-out: IC50_Mean.
Test [10] deals with DNA (cytosine-5)-methyltransferase 1 (Homo sapiens, UniProt P26358). As to the kind of experiment: inhibition of DNA methylation by DNMT1 – biochemical, fluorescent molecular beacon, confirmation (AID 602386). Type of test: functional.
Test [11] concerns the target T2, Small ubiquitin-related modifier 1. As to the kind of experiment: SUMO1 protein interaction blockers, potency – biochemical, fluorescence polarization, uHTS hits, dose response (AID 624382). The test is classed as functional. The following applies: read-out: IC50_Mean. (In general: Fluorescence polarisation rises when a labelled molecule tumbles more slowly, as on binding a larger partner.)

A short description of test [12]: activation of miR-122 Renilla sensor silencing – cell-based, Huh7 psiCHECK-miR122, Renilla luciferase, cherry-picked, dose response (AID 651956).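 Also: huh7 hepatoma cells stably carrying a psiCHECK-2 miR-122 sensor plasmid; renilla luciferase signal reporting endogenous miR-122 activity after 48 h compound exposure.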 The test is classed as functional.
A short description of test [13]: TNFa-induced NF-kB reporter signal decrease – HEK293 LMP1 reporter cells, dry powder, set 2, selectivity assay for EBV LMP1 NF-kB inhibitor project, dose response (AID 624369). The test is classed as functional.
The subject of another test is A549. Kind of test: viability loss in A549 cells – cell-based, plate reader, cherry-pick samples, cytotoxicity control, dose response (AID 687028). Type of test: functional. The following applies: Homo sapiens.
Test [14] in a line: viability loss in mouse NIH3T3 cells – cell-based, CellTiter-Glo luminescence, dry powder, cytotoxicity control for PglD inhibitor project, dose response (AID 652044). Type of test: functional.
Test [15] is described as follows: viability loss in LCL cells – cell-based, plate reader, dry powder, set 2, cytotoxicity control, dose response (AID 624367). Type of test: functional.
Test [16] in a line: OVCAR8 cell viability loss – plate reader, dry powder samples, PAX8 project, dose response (AID 743197). The test is classed as functional, cell-based. The following applies: OVCAR-8.
The target in the next test is Paired box protein Pax-8 (Homo sapiens, UniProt Q06710). As to the kind of experiment: PAX8 transcriptional activity inhibition in RMG-I – RMG-I cells, luciferase, cherry-pick, dose response (AID 687027).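 Also: luciferase reporter driven by Pax8 target thyroperoxidase promoter measured by SteadyGlo luminescence.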 Type of test: functional, cell-based.
Test [17] is described as follows: general cell-killing toxicity readout – plate reader, dry powder samples, cytotoxicity control for PAX8 inhibitor project, dose response (AID 743021). Type of test: functional, cell-based.
Test [18] in a line: OVCAR-3 cell viability loss – plate reader, dry powder samples, PAX8 inhibitor project, dose response (AID 743044). Type of test: functional, cell-based.
The next test deals with Protein Wnt-3a (Mus musculus, UniProt P27467). As to the kind of experiment: SAR analysis of small molecule antagonists of Gli-SUFU in a Wnt3a luminescent reporter assay. Type of test: functional.
Test [19] is described as follows: Cytotoxicity screening for potential Inhibitors of Bacterial Capsule Biogenesis (4). The test is classed as functional.
Test [20] can be described thus: general mammalian cell viability loss – inhibitor set, cherry-pick, set 2, cytotoxicity control for miR-122 modulator project, dose response (AID 720697). The test is classed as functional, cell-based.
A short description of test [21]: general mammalian cell viability loss – activator set, cherry-pick, cytotoxicity control for miR-122 modulator project, dose response (AID 720690).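 Also: HEK293T human cells scored for general mammalian cytotoxicity.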 Type of test: functional, cell-based.
The nature of test [22]: COV434 cell viability loss – plate reader, dry powder, SA7, cytotoxicity control for PAX8 inhibitor project, dose response (AID 743145). The test is classed as functional, cell-based.
A short description of test [23]: inhibitors acting on PAX2 in cells – cell-based, plate reader, dry powder samples, selectivity assay for PAX8 inhibitor project, dose response (AID 743048).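 Also: HEK293 cells carrying a WT1 promoter luciferase reporter driven by expressed Pax2; potency is for inhibition of Pax2 driven reporter signal.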 The test is classed as functional.
The nature of test [24]: PAX8-dependent cell viability loss – plate reader, dry powder, dose response (AID 743049). Type of test: functional, cell-based.
Test [25] deals with Cryptococcus neoformans. Kind of test: Cryptococcus growth inhibition by alamar blue – cell lysis, cherry-picks, replicate tests, mechanism study for C. neoformans antifungal project, dose response (AID 686999). The test is classed as functional, organism-based.
Test [26] can be described thus: NIH-3T3 fibroblast cytotoxicity, dose response, cytotoxicity control, cell-based, fluorescence, Alamar Blue, secondary assay (AID 2327).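 Also: NIH-3T3 mouse fibroblasts cultured with fluconazole at 8 µg/mL.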 Type of test: functional.
Test [27] in a line: fluconazole-exposed Candida albicans growth modulators – fluorescence, retest, confirmation (AID 2467). The test is classed as functional, cell-based.
Test [28] can be described thus: NIH3T3 cell viability loss – ATP luminescence, mouse fibroblasts, counter-screen, dose response (AID 2010).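 Also: cells exposed to compound for about 90 hours before reading.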 Type of test: functional, cell-based.
Test [29] relates to Cryptococcus neoformans. Kind of test: PubChem AID 686997. The test is classed as functional, organism-based.
Test [30] can be described thus: Trypanosoma cruzi growth suppression in host cells – NIH3T3 host cells, beta-gal luminescence, confirmation (AID 2044).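 Also: intracellular parasites grown in NIH/3T3 mouse fibroblasts as host cells; luminescent beta-galactosidase reporter signal from transgenic T. cruzi replicating inside host cells; inhibitors lower the luminescence signal.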 Type of test: functional, cell-based.
In the next test the test system is HeLa. As to the kind of experiment: viability loss in HeLa cells – cell-based, ATP luminescence, cherry-pick samples, cytotoxicity control, dose response (AID 687004). Type of test: functional. The following applies: Homo sapiens.

Each structure is given as a SMILES string. Calls of active or inactive are those of the source.

As usually defined, the AC50 is the concentration at which the activity in the assay is half-maximal. One may read the CC50 as the concentration that lowers cell viability or growth by half. As usually defined, the EC50 is the concentration needed to bring the measured effect to its halfway point.

T2 sequence (P63165 whole entry): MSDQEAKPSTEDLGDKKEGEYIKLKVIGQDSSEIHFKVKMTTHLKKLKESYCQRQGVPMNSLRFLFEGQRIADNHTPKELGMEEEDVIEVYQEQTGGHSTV
T1 sequence (Q01196 whole entry, the tested form may be a part): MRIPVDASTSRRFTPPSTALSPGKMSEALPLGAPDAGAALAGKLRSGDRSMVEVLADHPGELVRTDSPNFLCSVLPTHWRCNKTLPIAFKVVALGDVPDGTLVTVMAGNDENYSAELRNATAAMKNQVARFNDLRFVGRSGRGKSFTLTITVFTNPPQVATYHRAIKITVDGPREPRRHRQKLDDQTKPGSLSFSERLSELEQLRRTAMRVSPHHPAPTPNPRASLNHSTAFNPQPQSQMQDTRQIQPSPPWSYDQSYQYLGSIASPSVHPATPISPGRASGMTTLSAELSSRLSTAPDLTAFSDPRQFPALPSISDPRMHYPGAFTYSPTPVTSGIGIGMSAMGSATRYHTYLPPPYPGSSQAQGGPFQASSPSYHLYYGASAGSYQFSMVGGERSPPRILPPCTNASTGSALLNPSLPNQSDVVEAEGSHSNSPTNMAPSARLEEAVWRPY
T1 sequence (Q13951 whole entry, the tested form may be a part): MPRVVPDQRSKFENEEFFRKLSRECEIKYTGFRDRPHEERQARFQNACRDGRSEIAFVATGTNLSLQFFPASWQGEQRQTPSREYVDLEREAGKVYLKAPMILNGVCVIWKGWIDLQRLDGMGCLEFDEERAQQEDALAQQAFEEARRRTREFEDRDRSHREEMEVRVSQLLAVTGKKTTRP
Dual specificity protein phosphatase 3, sequence (P51452 whole entry): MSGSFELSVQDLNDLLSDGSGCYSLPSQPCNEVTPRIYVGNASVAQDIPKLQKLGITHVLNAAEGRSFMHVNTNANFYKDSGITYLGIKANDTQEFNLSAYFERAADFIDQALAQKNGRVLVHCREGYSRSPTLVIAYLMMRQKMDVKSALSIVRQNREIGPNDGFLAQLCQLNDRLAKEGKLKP
Paired box protein Pax-8, sequence (Q06710 whole entry): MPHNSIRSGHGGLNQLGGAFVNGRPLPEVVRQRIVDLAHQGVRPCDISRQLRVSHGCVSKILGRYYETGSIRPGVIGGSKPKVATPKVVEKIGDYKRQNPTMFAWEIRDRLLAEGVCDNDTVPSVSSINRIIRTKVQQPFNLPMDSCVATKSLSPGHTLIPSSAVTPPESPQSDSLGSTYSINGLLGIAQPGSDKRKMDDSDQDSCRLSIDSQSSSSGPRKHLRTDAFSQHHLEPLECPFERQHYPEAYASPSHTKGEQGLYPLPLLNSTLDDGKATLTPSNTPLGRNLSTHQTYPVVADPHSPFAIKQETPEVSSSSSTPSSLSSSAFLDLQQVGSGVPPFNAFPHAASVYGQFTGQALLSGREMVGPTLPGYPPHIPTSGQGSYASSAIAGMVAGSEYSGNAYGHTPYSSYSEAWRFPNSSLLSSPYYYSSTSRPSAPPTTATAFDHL
Albumin, sequence (P02769 whole entry): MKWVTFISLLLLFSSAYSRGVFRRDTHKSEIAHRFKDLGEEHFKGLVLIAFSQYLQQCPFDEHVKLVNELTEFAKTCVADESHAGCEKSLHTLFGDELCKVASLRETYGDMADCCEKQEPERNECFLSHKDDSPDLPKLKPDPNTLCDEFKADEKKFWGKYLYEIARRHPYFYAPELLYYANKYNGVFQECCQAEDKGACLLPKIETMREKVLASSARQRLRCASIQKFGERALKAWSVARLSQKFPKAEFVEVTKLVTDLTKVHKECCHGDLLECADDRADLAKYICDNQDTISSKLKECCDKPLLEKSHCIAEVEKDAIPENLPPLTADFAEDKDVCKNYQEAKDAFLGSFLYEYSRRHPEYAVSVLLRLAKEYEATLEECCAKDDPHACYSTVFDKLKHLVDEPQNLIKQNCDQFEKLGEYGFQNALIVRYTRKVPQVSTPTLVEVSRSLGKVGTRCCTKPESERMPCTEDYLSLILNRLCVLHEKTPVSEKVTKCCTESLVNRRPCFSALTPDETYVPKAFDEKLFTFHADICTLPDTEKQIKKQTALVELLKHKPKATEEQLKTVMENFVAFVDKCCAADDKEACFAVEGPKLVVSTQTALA
Tyrosine-protein phosphatase non-receptor type 11, sequence (Q06124 whole entry): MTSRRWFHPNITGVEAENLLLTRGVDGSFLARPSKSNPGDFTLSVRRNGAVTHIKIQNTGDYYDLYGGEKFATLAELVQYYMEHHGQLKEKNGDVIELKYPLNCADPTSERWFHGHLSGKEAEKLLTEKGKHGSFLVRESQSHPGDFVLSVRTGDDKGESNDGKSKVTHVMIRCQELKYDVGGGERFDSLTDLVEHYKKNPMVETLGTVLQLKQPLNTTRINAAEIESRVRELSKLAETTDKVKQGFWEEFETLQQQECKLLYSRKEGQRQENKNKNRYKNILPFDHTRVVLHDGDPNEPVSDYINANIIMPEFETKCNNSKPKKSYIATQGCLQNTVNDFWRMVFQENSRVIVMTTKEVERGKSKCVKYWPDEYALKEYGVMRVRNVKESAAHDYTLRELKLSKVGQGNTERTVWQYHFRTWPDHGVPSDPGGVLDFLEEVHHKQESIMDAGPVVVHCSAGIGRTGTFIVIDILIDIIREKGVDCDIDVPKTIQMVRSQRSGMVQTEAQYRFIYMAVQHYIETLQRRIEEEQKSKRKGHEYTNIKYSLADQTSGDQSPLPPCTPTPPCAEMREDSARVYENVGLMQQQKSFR
DNA (cytosine-5)-methyltransferase 1, sequence (P26358 whole entry): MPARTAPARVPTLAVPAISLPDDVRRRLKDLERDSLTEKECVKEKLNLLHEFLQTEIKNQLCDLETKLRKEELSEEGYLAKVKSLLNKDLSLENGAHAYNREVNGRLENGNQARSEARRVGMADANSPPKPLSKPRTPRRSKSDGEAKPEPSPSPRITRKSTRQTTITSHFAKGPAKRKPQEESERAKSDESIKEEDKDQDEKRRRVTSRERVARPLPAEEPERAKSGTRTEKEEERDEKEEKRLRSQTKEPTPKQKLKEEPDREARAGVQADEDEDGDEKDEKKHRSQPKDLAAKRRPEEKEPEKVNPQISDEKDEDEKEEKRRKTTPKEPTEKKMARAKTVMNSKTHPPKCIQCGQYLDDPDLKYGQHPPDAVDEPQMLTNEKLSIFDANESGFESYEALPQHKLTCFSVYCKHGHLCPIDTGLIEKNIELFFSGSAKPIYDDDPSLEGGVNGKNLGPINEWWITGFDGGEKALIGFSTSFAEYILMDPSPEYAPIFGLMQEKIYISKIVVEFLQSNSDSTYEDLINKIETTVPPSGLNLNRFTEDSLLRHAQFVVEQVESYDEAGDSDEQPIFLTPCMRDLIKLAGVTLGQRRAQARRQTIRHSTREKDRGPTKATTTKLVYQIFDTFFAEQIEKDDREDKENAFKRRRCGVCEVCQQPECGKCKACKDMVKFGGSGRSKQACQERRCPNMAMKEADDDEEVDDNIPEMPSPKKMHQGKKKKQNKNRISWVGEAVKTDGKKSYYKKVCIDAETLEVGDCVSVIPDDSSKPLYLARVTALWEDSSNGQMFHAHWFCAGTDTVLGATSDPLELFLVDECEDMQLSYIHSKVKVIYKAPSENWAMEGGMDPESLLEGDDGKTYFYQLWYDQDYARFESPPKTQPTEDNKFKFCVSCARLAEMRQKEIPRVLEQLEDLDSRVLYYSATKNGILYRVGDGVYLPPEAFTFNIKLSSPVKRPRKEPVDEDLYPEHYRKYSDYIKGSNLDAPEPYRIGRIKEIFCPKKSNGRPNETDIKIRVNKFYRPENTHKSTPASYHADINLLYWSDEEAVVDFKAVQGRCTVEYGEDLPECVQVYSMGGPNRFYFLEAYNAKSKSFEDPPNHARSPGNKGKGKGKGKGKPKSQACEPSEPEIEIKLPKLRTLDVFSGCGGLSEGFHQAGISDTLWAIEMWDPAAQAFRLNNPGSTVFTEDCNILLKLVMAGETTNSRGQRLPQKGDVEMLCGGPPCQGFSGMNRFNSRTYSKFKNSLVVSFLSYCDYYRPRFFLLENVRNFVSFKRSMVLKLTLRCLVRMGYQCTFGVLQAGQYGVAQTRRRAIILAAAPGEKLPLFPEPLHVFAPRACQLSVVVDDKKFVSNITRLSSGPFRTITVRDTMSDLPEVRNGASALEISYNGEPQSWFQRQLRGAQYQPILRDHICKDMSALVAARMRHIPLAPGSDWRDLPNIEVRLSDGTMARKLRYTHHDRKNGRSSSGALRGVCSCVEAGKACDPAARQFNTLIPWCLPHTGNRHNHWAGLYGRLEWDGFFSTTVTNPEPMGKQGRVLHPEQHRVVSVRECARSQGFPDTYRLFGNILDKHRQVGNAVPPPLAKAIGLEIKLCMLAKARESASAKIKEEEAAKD
Tyrosine-protein phosphatase non-receptor type 5, sequence (P54829 whole entry): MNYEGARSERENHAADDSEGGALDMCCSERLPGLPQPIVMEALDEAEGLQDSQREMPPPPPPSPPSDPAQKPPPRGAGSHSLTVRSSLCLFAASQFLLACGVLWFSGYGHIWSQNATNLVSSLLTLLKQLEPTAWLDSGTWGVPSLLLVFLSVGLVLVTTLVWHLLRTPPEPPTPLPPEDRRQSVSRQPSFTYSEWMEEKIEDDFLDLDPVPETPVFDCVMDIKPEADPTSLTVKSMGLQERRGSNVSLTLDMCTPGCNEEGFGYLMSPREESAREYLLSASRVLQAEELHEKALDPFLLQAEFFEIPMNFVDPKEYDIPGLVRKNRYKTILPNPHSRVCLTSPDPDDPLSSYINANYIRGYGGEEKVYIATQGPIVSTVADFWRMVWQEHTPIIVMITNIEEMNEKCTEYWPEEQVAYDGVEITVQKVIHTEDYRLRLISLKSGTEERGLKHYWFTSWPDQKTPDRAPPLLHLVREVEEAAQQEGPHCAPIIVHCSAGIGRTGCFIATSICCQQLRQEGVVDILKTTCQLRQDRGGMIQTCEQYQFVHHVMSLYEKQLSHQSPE

For `CCOC(=O)c1[nH]c(C)c(C(=O)C2=C(O)C(=O)N(CCCN3CCOCC3)C2c2cccs2)c1C` (stereo not given), in [1], the half-maximal activity concentration (AC50) was 19.4 µM (active).
Regarding `COc1ccc(C2c3ccc(O)cc3Oc3ncn4nc(-c5ccccn5)nc4c32)cc1` (stereo not given), the AC50 is > 24 µM (inactive) in the test “cells [2]” and > 52 µM (inactive) in the test “cells [5]”. The IC50 in test [3] is 22.9 µM (active); in test [4] it was > 100 µM (inactive).
As for `O=C(N/N=C/c1ccoc1)c1cc(O)cc(O)c1`, the IC50 is > 94 µM (inactive) on Albumin; 1.55 µM (active) in test [6]; 33.9 µM (inactive) in test [7]; 12.4 µM (active) in test [8]; 0.952 µM (active) in test [9]; 7.09 µM (active) in test [10]. Besides, the IC50 in test [11] was > 66.6 µM (inactive).
On to `CC(C)c1ccc(NC(=O)C[C@H]2CC[C@H]3[C@@H](COc4ccc(NC(=O)Nc5ccc(F)c(F)c5)cc4C(=O)N3C)O2)cc1`, for which the AC50 in [12] is 14.3 µM (active). In [13], this compound had an AbsAC35 of 91.94 µM.
For the compound `Cc1ccc2ccc(C(Nc3ccccc3)c3ccccc3)c(O)c2n1` (stereo not given), in the test on A549, the concentration at half-maximal activity (AC50) was 17.9 µM (active).
With `O=C(C[C@@H]1CC[C@H]2[C@@H](COC[C@H](O)CN2C(=O)Nc2cccc(F)c2)O1)NCc1ccccc1F`, the AC50 in [14] was > 52 µM (inactive).
On to `O=C(Nc1ccc(C(F)(F)F)cc1)Nc1ccc2c(c1)[C@@H]1C[C@H](CC(=O)N3CCc4ccccc4C3)O[C@@H](CO)[C@@H]1O2`, for which the AbsAC35 in test [15] came out at 85.24 µM.
For `C[C@@H]1CCCCO[C@@H](CN(C)C(=O)c2ccccc2)[C@@H](C)CN([C@@H](C)CO)C(=O)c2cc(NC(=O)Nc3ccc(C(F)(F)F)cc3)ccc2O1`, the AC50 was > 70 µM (inactive) in test [16], 8.77 µM (active) at Paired box protein Pax-8, 44.3 µM (active) in test [17] and 7.75 µM (active) in [18].
With `O=C(Nc1cc(N2CCCC2)ncn1)c1ccccc1F`, the IC50 at Protein Wnt-3a is 0.696 µM (active).
In the case of `CC(C)(C)OC(=O)Nc1nc2ccc(C(=O)Nc3ccnc(Cl)c3)cc2s1`, the CC50 in test [19] is > 300 µM (inactive).
For `C[C@@H]1CN([C@@H](C)CO)S(=O)(=O)c2ccc(-c3cncnc3)cc2O[C@@H]1CN(C)Cc1ccc(Oc2ccccc2)cc1`, the AC50 in [20] is 22.7 µM (active); in test [21], 24.9 µM (active).
`COCC(=O)N1[C@H](CO)[C@H](c2ccc(-c3cccnc3)cc2)[C@@H]1C#N`: the AC50 in test [22] is 0.00824 µM (active); in [23], > 32 µM (inactive); in [24] it was > 70 µM (inactive).
Consider `NC(=S)N/N=C/c1ccc(-c2cc(Cl)ccc2Cl)o1`, for which the concentration at half-maximal activity (AC50) in the test with Cryptococcus neoformans [25] is 18.1 µM (active); in the test with Cryptococcus neoformans [29], 12.2 µM (active); in the test on HeLa it was 17.6 µM (active). The concentration for a half-maximal effect (EC50) in test [26] was 15.4 µM (active); in test [27] it was 4.47 µM (active); in [28], > 60 µM (not active); in test [30], 0.627 µM (active).
